Results published in US20040005294A1, “IGFBP-3 in the diagnosis and treatment of cancer” (priority 2002, published 2004).

How the values were obtained:
Format in all cases: cell-based, human
1799 cells = assay: Apoptosis by APO-BrdU (modified TUNEL) flow cytometry, 1799 cells
Method: NHBE, premalignant (1799 and 1198), and malignant (1170-1) HBE (2×10^6) cells were exposed to various doses of deguelin or to DMSO (0.1%) for 3 days. Apoptosis was assessed by morphology, by a flow cytometry-based, modified terminal deoxynucleotidyl transferase dUTP nick end labeling (TUNEL) assay, and by the detection of fragmented DNA. For morphology, live cells were observed by light microscopy using a ×100 objective. For TUNEL analysis, both adherent and nonadherent cells were harvested and pooled, fixed with 1% paraformaldehyde and 70% ethanol, and processed using the APO-BrdU staining kit (Phoenix Flow Systems, San Diego, Calif.), a modified TUNEL assay, as described (Lee et al., 2002). Cells treated with DMSO were used to gate the control nonapoptotic populations and as a reference for cells treated with deguelin. An internal control (HL-60 cells treated with camptothecin to induce apoptosis) provided in the apoptosis detection kit was also used to ensure that the TUNEL reaction was occurring during the staining procedure. For the detection of fragmented nucleosomal DNA, cells were processed using the TACS apoptotic DNA laddering kit (Trevigen Inc., Gaithersburg, Md.), according to the manufacturer's recommended protocol.
To determine whether deguelin-induced antiproliferative effects on premalignant HBE cells were mediated through the inhibition of the PI3K/Akt pathway, 2×10^5 1799 cells/well or 1×10 ^6 squamous HBE cells/well in six-well plates were infected with 5×10 ^3 particles/cell of a control virus (Ad5CMV) or with 1×10^3 or 5×10^3 particles/cell of Ad5CMV-MyrAkt-HA, an adenoviral vector that expresses a constitutively active Akt. (MyrAkt) in KSFM. After 1 day of infection, cells were treated with 10^−7M or 10^−6M deguelin, 2×10^−6 M or 4×10^−6M N-(4-hydroxyphenyl)retinamide (4-HPR), or 0.1% DMSO as a control and then incubated for 1 or 2 days. Apoptosis was analyzed using the APO-BrdU staining kit for TUNEL, Western blot analyses for caspase-3, and the cleavage of PARP.

[1] = tested on: PI3K/Akt pathway in 1799 cells; assay: Immunoblot of pAkt and pGSK-3β, 1799 cells; conditions: 10^−7 M
Method: Whole cell lysates from 1×10^6 cells were prepared in lysis buffer as described (Lonardo et al., 2002). Equivalent amounts of protein were resolved by sodium dodecyl sulfate (SDS)-polyacrylamide gels (7.5%-12%) and transferred to a nitrocellulose membrane. After the membrane was blocked in Tris-buffered saline (TBS) containing 0.05% Tween 20 (TBST) and 5% (w/v) nonfat powdered milk, the membrane was incubated with primary antibody at the appropriate dilution in TBS-5% nonfat milk at 4° C. for 16 h. The membrane was then washed multiple times with TBST and incubated with the appropriate horseradish peroxidaseconjugated secondary antibody for 1 h at room temperature. The protein-antibody complexes were detected by enhanced chemilurminescence (ECL kit; Amersham, Arlington Heights, Ill.), according to the manufacturer's recommended protocol. […]

squamous HBE cells = assay: MTT proliferation assay, squamous HBE cells; conditions: 1 day
JNK in 1799 cells = assay: Immune complex kinase assay for JNK; conditions: 10^−7 M
Method: Approximately 5×10^6 1799 cells were treated with 10^−7 M deguelin or 0.1% DMSO for various time periods in the absence of any additional stimulatory growth factors. The cells were then treated with 50 ng/mL IGF-I for 15 minutes to activate MAPK. Total cell extracts were prepared in lysis buffer (Lonardo et al. 2002), and ERK-1/2 or c-Jun N-terminal kinase (JNK) were immunoprecipitated from 100 μg of each cell extract using antibodies (1 μg) that recognize ERK1/2 or JNK (Santa Cruz Biotechnology) and protein-A sepharose beads (20 μL) (Amersham Pharmacia Biotech). Kinase assays were performed by incubating the beads with 30 μL of kinase buffer to which 5 μCi of [γ^32P]ATP (2000 cpm/pmol) and 1 μg of substrate (myelin basic protein [MBP; Calbiochem, La Jolla, Calif.] or GST-cJun [Santa Cruz Biotechnology]) were added, as previously described (Lee et al., 2002). The samples were suspended in Laemmli buffer, boiled for 5 min, and then analyzed by SDS-polyacrylamide gel clectrophoresis. The gel was dried and autoradiographed. Total cell lysates from Jurkat cells (Upstate Biotechnology, Inc.) and H1299 NSCLC treated with 50 ng/mL IGF-I for 15 min were used as positive controls. Changes in the level of phosphorylation in MBP or GST-cJun reflect changes in Erk1/2 and JNK activity, respectively.

**Q.** Which cells undergoing apoptosis (1799 cells; 10^−7 M, 2 days, 1799 cells infected with Ad5CMV-MyrAkt-HA) does the source give for `COc1cc2c(cc1OC)[C@@H]1C(=O)c3ccc4c(c3O[C@@H]1CO2)C=CC(C)(C)O4` [deguelin, Deguelin] here?
**A.** less than 10%

**Q.** What about the cells undergoing apoptosis (1799 cells; 10^−7 M, 2 days, 1799 cells uninfected or infected with control adenovirus) of the same molecule?
**A.** approximately 40%

**Q.** And the cells undergoing apoptosis (1799 cells; 10^−7 M, 3 days)?
**A.** 92.2%

**Q.** And the cells undergoing apoptosis (1799 cells; 10^−8 M, 3 days)?
**A.** 68.5%

**Q.** What about the cells undergoing apoptosis (1799 cells; 10^−9 M, 3 days) of the same molecule?
**A.** approximately 3.3%

**Q.** What about the “levels of pAkt and pGSK-3β” value ([1]; 0-24 h) of the same molecule?
**A.** time-dependent decrease in the levels of pAkt and pGSK-3β

**Q.** And the pAkt level ([1]; by 14 h)?
**A.** virtually undetectable

**Q.** What about the “proliferation of control squamous HBE cells” value (squamous HBE cells; 10^−7 M or 10^−6 M) of the same molecule?
**A.** decreased proliferation of control squamous HBE cells in a dose-dependent manner

**Q.** And the “growth as percent of untreated cells” value (squamous HBE cells; squamous HBE cells overexpressing constitutively active Akt, 10^−7 M to 10^−6 M)?
**A.** approximately 95%

**Q.** What about the JNK activity (JNK in 1799 cells) of the same molecule?
**A.** not affected
